# Measurements: patent publication US11197857B2, “Combination therapy” (GlaxoSmithKline Intellectual Property Development Limited, priority 2016, dated 2021)
# Read-outs that look alike come from different tables or passages of the source.
# Key:
# [1] = test system: breast cancer cell lines (SKBR3, MDA-MB-468, MCF-7, ZR-75-1); experiment: longer-term (10-12 day) growth/death assay; type: cell-based; settings: SKBR3, MDA-MB-468 and MCF-7 cells, prolonged exposure (7-10 days)
# 240 cancer cell lines = experiment: 10-day 2D growth assay, 240 cell lines; type: cell-based
# Description: FIG. 34: Compound B gIC50 values in cancer cell lines (n=240) from 10 day 2D growth assay. ALL-acute lymphoblastic leukemia, AML-acute myeloid leukemia, CML-chronic myeloid leukemia, DLBCL-diffuse large B-cell lymphoma, HL-Hodgkin lymphoma, HN-head and neck cancer, MM-multiple myeloma, NHL-non-Hodgkin lymphoma, NSCLC-non-small cell lung cancer, PEL-primary effusion lymphoma, SCLC-small cell lung cancer, TCL-T-cell lymphoma.
# The tumor types with median gIC50<100 nM were acute myeloid leukemia (AML), chronic myelogenous leukemia (CML), Hodgkin's Lymphoma (HL), multiple myeloma (MM), breast, glioma, kidney, melanoma, and ovarian cancer.
# [2] = test system: 19 enzymes: Type I and Type II PRMTs and lysine methyltransferases (KMTs); experiment: methyltransferase selectivity panel; type: biochemical; settings: for selectivity over other methyltransferases: PRMT5 tool compounds
# Source text: FIG. 31: Phylogenetic tree highlighting the methyltransferases tested in the selectivity panel. […] PRMT9 is shown for relationship purposes only within the family tree and was not evaluated in the panel. Figure adapted from Richon V M. et al.
# PRMT9/FBXO11, which is the other Type II PRMT and the only PRMT to lack the THW loop, was not included due to the lack of a functional enzyme assay.
# PRMT5/MEP50 = PRMT5/MEP50 (Homo sapiens, UniProt O14744); experiment: PRMT5/MEP50 radioactive assay (3H transfer from SAM to H4 peptide / protein substrate); type: biochemical; settings: close analogs of Compound C
# PRMT5/MEP50, sequence (O14744 whole entry): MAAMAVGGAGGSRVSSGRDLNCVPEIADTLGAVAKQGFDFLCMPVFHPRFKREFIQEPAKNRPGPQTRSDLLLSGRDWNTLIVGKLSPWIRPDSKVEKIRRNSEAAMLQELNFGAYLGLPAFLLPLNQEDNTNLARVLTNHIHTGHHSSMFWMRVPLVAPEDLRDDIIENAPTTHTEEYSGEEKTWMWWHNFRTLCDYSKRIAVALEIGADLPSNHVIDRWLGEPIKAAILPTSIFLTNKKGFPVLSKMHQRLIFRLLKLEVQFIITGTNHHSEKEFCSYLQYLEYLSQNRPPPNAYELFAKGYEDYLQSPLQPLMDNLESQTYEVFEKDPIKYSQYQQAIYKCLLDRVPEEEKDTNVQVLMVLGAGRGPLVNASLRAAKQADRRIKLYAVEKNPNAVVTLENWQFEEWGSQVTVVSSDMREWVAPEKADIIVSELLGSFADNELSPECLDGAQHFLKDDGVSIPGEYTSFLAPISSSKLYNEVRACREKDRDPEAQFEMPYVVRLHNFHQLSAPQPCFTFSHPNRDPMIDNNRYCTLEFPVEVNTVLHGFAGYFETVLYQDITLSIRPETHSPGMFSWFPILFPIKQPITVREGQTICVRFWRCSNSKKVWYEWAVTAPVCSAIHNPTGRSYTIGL
# PRMT5/MEP50, sequence (Q9BQA1 whole entry partner): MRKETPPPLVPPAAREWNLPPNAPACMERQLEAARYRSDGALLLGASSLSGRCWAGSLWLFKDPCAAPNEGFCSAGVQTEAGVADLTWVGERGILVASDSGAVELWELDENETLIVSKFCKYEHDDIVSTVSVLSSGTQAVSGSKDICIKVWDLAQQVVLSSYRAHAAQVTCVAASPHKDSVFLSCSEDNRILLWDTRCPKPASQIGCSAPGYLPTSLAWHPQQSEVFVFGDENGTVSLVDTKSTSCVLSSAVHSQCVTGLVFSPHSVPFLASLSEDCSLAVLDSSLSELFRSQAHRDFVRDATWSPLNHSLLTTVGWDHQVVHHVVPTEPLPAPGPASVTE
# [3] = test system: SDMA in a panel of 5 MCL lines; experiment: SDMA inhibition in MCL panel; settings: read-out: SDMA IC50
# Source text: (B) SDMA IC50 values in a panel of MCL lines (EPIZYME data, day 4).
# [4] = test system: panel of cancer cell lines; experiment: cells; type: cell-based
# Source text: DLBCL-diffuse large B-cell lymphoma, GBM-glioblastoma, MCL-mantle cell lymphoma, MM-multiple myeloma
# The cell lines were selected to represent tumor types where PRMT5 activity has been reported to regulate key pathways and/or cell growth and survival (such as lymphoma and MCL, glioma, breast and lung cancer lines).
# MCL cell lines = experiment: 6-day growth/death CTG assay in MCL cell lines; type: cell-based; settings: for IC50: read-out: gIC50
# [5] = test system: MDM4 splicing, SDMA, p53 and p21 in MCL lines; experiment: MDM4 splicing (RT-PCR) and SDMA/p53/p21 western; type: cell-based
# Description: To understand whether p53 activation is associated with MDM4 isoform switching, MDM4 alternative splicing was analyzed. […] The role of the p53 pathway in the biology of the response of p53 wild-type MCL cells to PRMT5 inhibition is being evaluated.
# [6] = test system: Maver-1 MCL xenograft model; experiment: Maver-1 xenograft efficacy and PD; type: in vivo; settings: for TGI: day 18
# Description: (§1) B. Quantified SDMA western data from tumors harvested at the end of the efficacy study (3 hours post last dose).
# [7] = test system: gene expression in Z138 cells; experiment: qPCR gene expression (11 genes); type: cell-based; settings: Homo sapiens, Z-138, 96 h, day 4
# Z138 MCL cells = experiment: 6-day growth/death assay; type: cell-based; settings: Z138, 6-day
# [8] = test system: Z-138 MCL xenograft model; experiment: Z138 xenograft 21-day efficacy and PD; type: in vivo; settings: for TGI: 21-day
# Description: as §1
# GBM cell lines = experiment: 2D 6-day growth/death CTG assay; type: cell-based
# 4 breast cancer lines = experiment: propidium iodide FACS cell cycle analysis; type: cell-based; settings: after 7-10 days of treatment
# SDMA in Z138 cells = experiment: SDMA ELISA; type: cell-based; settings: Homo sapiens
# [9] = test system: MDA-MB-468 triple negative breast cancer xenograft model; experiment: MDA-MB-468 xenograft efficacy and PK/PD; type: in vivo
# Description: Next, the efficacy of PRMT5 inhibition was evaluated in in vivo models of breast cancer.
# [10] = test system: patient-derived tumor models and cell lines (n=73); experiment: soft agar 3D colony formation assay; type: cell-based; settings: n=73 models
# Source text: FIG. 35: Compound E relative IC50 values from 8-13 day colony formation assay performed in patient-derived and cell line tumor models.
# Tumor types with the lowest median IC50 values were large cell lung cancer, breast, kidney and glioma.
smiles,measurement,setting,value
O=C(NC[C@H](O)CN1CCc2ccccc2C1)c1ccnc(NC2CCC2)c1 [Compound B],nature of response,[1],cytotoxic response
same,IC50,"240 cancer cell lines; AML, CML, HL, MM, breast, glioma, kidney, melanoma, ovarian cancer, read-out: median gIC50",< 100 nM
same,IC50,"240 cancer cell lines; majority of cell lines, read-out: gIC50",< 1000 nM
same,selectivity over other methyltransferases,[2],Selectivity for PRMT5/MEP50 over the other methyltransferases
same,inhibitory potency compared with Compound C,PRMT5/MEP50,similar
CC(=O)N1CCC(Nc2cc(C(=O)NC[C@H](O)CN3CCc4ccccc4C3)ncn2)CC1 [Compound C],IC50,[3],0.3 to 14 nM
same,IC50,"[4]; majority of cell lines tested, read-out: gIC50",< 1000 nM
same,gIC50,[4]; most sensitive lymphoma lines (MCL and DLBCL),single digit nM range
same,IC50,MCL cell lines; 1 cell line of the MCL panel,> 1000 nM
same,IC50,MCL cell lines; 2 lines of the MCL panel,≤ 100 nM
same,IC50,MCL cell lines; 3 cell lines of the MCL panel,< 10 nM
same,sensitivity,"MCL cell lines; Mino, Jeko-1 (ibrutinib sensitive lines)",only moderately sensitive
same,gIC50,"MCL cell lines; Z-138, Maver-1 and JVM-2",low
same,MDM4 isoform switching,[5]; Z138 and JVM-2 cells (both p53 wild-type),induced MDM4 isoform switching
same,concentrations at which SDMA levels were undetectable by Western blot,[5]; Z138 cells,above 8 nM
same,concentrations at which changes in MDM4 splicing and p53/p21 protein expression were apparent,[5]; Z138 cells,above 8 nM
same,p53 and p21 expression,"[5]; Z138 cells, 200 nM Compound C",increased p53 and p21 expression to similar levels
same,nature of response,[1],cytotoxic response
same,"reduction of the methyl mark (SDMA, tumors)",[6]; all dose groups,80-95%
same,TGI,[6]; lowest dose group,50%
same,TGI,[6]; top dose groups,> 90%
same,EC50,[7],22 to 332 nM
same,IC50,"Z138 MCL cells; Homo sapiens, Z-138, 144 h, read-out: gIC50",2.7 nM
same,gIC95,Z138 MCL cells,82 nM
same,gIC100,Z138 MCL cells,880 nM
same,"reduction of the methyl mark (SDMA western, tumors)",[8]; all dose groups,greater than 70%
same,body weight loss,[8]; all groups in all efficacy studies presented,no body weight loss
same,TGI,"[8]; lowest dose group, 25 mg/kg BID",40%
same,TGI,[8]; top 100 mg/kg BID dose group,> 90%
same,"reduction of the methyl mark (SDMA western, tumors)",[8]; top dose groups,> 98%
same,IC50,[2]; any of the 19 enzymes,> 40000 nM
same,potency for any other tested enzyme (FIG. 31),[2]; phylogenetic tree symbol class,> 10^−5 M
same,IC50,"GBM cell lines; 144 h, GBM cell lines, 6-day, read-out: gIC50",40 to 22000 nM
same,nature of response,GBM cell lines; with the exception of the SF539 cell line,largely cytostatic
same,breast cancer lines with induction of cell death (increase in <2N),4 breast cancer lines,3 out of 4
same,EC50,"SDMA in Z138 cells; Z-138, 24 h, day 1",7.3 nM
same,EC50,"SDMA in Z138 cells; Z-138, 72 h, day 3",2.35 nM
same,IC50,"SDMA in Z138 cells; Z-138, 72 h, day 3",4.79 nM
same,EC90,"SDMA in Z138 cells; Z-138, 72 h, day 3, read-out: SDMA EC90 (complete inhibition above)",19 nM
same,SDMA inhibition,[9]; 100 mg/kg BID,greater than 90%
same,TGI,[9]; 100 mg/kg BID,83%
same,SDMA inhibition,[9]; 100 mg/kg QD,less than 80%
same,efficacy,[9]; 100 mg/kg QD,not efficacious
O=C(NC[C@H](O)CN1CCc2ccccc2C1)c1cc(NC2COC2)ncn1 [Compound E],selectivity over other methyltransferases,[2],Selectivity for PRMT5/MEP50 over the other methyltransferases
same,share of models with relative growth IC50 values below 1 μM,[10],37%
same,inhibitory potency compared with Compound C,PRMT5/MEP50,similar
CC(=O)N1CCC(Nc2cc(C(=O)NC[C@H](O)CN3CCc4ccccc4C3)ccn2)CC1 [Compound F],selectivity over other methyltransferases,[2],Selectivity for PRMT5/MEP50 over the other methyltransferases
same,inhibitory potency compared with Compound C,PRMT5/MEP50,similar
"COc1ccc(C2=N[C@@H](c3ccc(Cl)cc3)[C@@H](c3ccc(Cl)cc3)N2C(=O)N2CCNC(=O)C2)c(OC(C)C)c1 [Nutlin-3, reference compound]",p53 and p21 expression,"[5]; Z138 cells, 5 μM MDM2 inhibitor (Nutlin-3)",increased p53 and p21 expression to similar levels
